Experiments:
Type in all cases: in vivo
cucumber plants [1] = assay: toxicity to cucumber plants (Example 3)
potato leaves = assay: toxicity to potato leaves (Example 2)
cucumber plants [2] = assay: toxicity to cucumber plants (Example 5)
Excerpt: Controlling the Gray mold disease caused by Botrytis cinerea in cucumber plants utilizing 0.1% chitosan and metal complexes.

Measured: toxicity to the plant

O=[N+]([O-])[O-].O=[N+]([O-])[O-].[Cu+2] [CuNO3]
toxic: cucumber plants [1]; 25 ppm metals | cucumber plants [1]; 50 ppm metals | cucumber plants [1]; 75 ppm metals | potato leaves; 25 ppm metals | potato leaves; 50 ppm metals | potato leaves; 75 ppm metals | cucumber plants [2]; 35 ppm metals | cucumber plants [2]; 50 ppm metals

From patent US6589942B1, “Chitosan metal complexes and method for controlling microbial growth on plants using same” (priority 1998, dated 2003)
